Source: ChEMBL document CHEMBL4340545, “Identification of potent farnesoid X receptor (FXR) antagonist showing favorable PK profile and distribution toward target tissues: Comprehensive understanding of structure-activity relationship of FXR antagonists” (Bioorg Med Chem, 2019)

Columns and labels:
[1] = Drug concentration in liver of Sprague-Dawley rat at 30 mg/kg, po dissolved in 40% HP-beta-CD measured after 360 mins by LC-MS/MS analysis; type: ADME, organism-based; conditions: read-out: Drug uptake
[2] = AUC (0 to 360 mins) in Sprague-Dawley rat at 30 mg/5 ml/kg, po dissolved in 40% HP-beta-CD by trapezoidal method; type: ADME, organism-based; design: time < 6 hr, dose 5 ml/kg, route oral; conditions: in vivo, 30 mg/kg
Bile acid receptor [3] = target: T1, Bile acid receptor (Homo sapiens, UniProt Q96RI1); test: Antagonist activity at human FXR expressed in Huh7 cells assessed as inhibition of CDCA-induced FXR response element driven luciferase activity after 24 hrs; type: cell-based
T1 sequence (Q96RI1 whole entry): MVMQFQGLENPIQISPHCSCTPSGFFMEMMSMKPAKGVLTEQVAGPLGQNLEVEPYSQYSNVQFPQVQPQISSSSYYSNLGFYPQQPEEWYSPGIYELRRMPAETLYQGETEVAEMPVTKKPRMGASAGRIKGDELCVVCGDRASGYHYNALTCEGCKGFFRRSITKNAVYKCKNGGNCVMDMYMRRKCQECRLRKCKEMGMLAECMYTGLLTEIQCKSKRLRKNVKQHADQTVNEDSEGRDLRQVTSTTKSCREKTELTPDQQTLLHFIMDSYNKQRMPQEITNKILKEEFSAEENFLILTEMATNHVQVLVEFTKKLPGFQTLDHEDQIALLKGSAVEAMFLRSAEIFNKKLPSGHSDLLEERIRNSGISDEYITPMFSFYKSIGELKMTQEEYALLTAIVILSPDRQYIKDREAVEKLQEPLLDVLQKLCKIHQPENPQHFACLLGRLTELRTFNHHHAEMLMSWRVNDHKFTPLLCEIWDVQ

[4] = Drug concentration in ileum of Sprague-Dawley rat at 30 mg/kg, po dissolved in 40% HP-beta-CD measured after 360 mins by LC-MS/MS analysis; type: ADME, organism-based; conditions: read-out: Drug uptake
[5] = Volume of distribution at steady state in Sprague-Dawley rat at 1 mg/ml/kg, iv dissolved in 10% HP-beta-CD; type: ADME, organism-based; conditions: in vivo, 1 mg/kg, read-out: Vdss
[6] = Cmax in Sprague-Dawley rat at 30 mg/5 ml/kg, po dissolved in 40% HP-beta-CD; type: ADME, organism-based; design: dose 5 ml/kg, route oral; conditions: in vivo, 30 mg/kg
[7] = Drug excretion in Sprague-Dawley rat urine at 1 mg/ml/kg, iv dissolved in 10% HP-beta-CD by LC-MS/MS analysis; type: ADME, organism-based; conditions: 1 mg/kg, read-out: Drug excretion
[8] = Tmax in Sprague-Dawley rat at 30 mg/5 ml/kg, po dissolved in 40% HP-beta-CD; type: ADME, organism-based; conditions: in vivo, 30 mg/kg
[9] = Oral bioavailability in Sprague-Dawley rat at 30 mg/5 ml/kg dissolved in 40% HP-beta-CD; type: ADME, organism-based; conditions: in vivo, 30 mg/kg
[10] = AUC (0 to 360 mins) in Sprague-Dawley rat at 1 mg/ml/kg, iv dissolved in 10% HP-beta-CD by LC-MS/MS analysis; type: ADME, organism-based; design: dose 1 mg/ml/kg, time < 6 hr, route intravenous; conditions: in vivo, 1 mg/kg
[11] = Terminal half life in Sprague-Dawley rat at 1 mg/ml/kg, iv dissolved in 10% HP-beta-CD measured after 60 to 360 min after administration; type: ADME, organism-based; conditions: in vivo, 1 mg/kg
Huh-7 = test: Cytotoxicity against human HuH7 cells assessed as reduction in cell viability incubated for 24 hrs by MTT assay; type: cell-based; conditions: Huh-7, 24 h
Bile acid receptor [12] = target: T1, Bile acid receptor; test: Antagonist activity at GST-tagged FXR LBD (unknown origin) assessed as inhibition of GW4064-induced fluorecein-labeled SRC2-2 coactivator recruitment by Lanthascreen TR-FRET assay
[13] = Ratio of drug concentration in liver to plasma of Sprague-Dawley rat at 30 mg/kg, po dissolved in 40% HP-beta-CD measured after 360 mins by LC-MS/MS analysis; type: ADME, organism-based
[14] = Ratio of drug concentration in ileum to plasma of Sprague-Dawley rat at 30 mg/kg, po dissolved in 40% HP-beta-CD measured after 360 mins by LC-MS/MS analysis; type: ADME, organism-based

SMILES: Cc1ccc2nc([C@H](CC3CCN(C(=O)C(C)C)CC3)N3C(=O)CN(c4ccc(Oc5ccccc5)cc4)C3=O)n(C)c2c1
- concentration at 6 h [1]: 225 ng/g
- AUC(0-t) at 6 h [2]: 0.146 µg·h/mL
- IC50 (Bile acid receptor [3]): < 0.001 nM
- concentration at 6 h [4]: 135 ng/g
- Vd [5]: 8.9 L/kg
- Cmax [6]: 0.0534 µg/mL
- dose excreted [7]: 0.64%
- Tmax [8]: 0.5 h
- bioavailability [9]: 2.76%
- AUC(0-t) at 6 h [10]: 0.182 µg·h/mL
- half-life ([11]; read-out: beta t1/2): 2.07 h

SMILES: CCN(CC)C(=O)c1ccc(C[C@@H](c2nc3ccc(C)cc3n2C)N2C(=O)CN(c3ccc(Oc4ccccc4)cc3)C2=O)cc1
- IC50 (Huh-7): > 100000 nM
- IC50 (Bile acid receptor [12]): 2800 nM
- IC50 (Bile acid receptor [3]): 1100 nM

SMILES: Cc1ccc2nc([C@H](CC3CCN(C(=O)C(C)C)CC3)N3C(=O)CN(c4ccc(Oc5ccc(F)cc5)cc4)C3=O)n(C)c2c1
- IC50 (Huh-7): > 100000 nM
- IC50 (Bile acid receptor [12]): 35 nM
- IC50 (Bile acid receptor [3]): 0.05 nM

SMILES: Cc1ccc2nc([C@H](Cc3ccc(C#N)cc3)N3C(=O)CN(c4ccc(Oc5ccccc5)cc4)C3=O)n(C)c2c1
- IC50 (Huh-7): > 100000 nM
- IC50 (Bile acid receptor [12]): 7100 nM
- IC50 (Bile acid receptor [3]): 781 nM

SMILES: Cc1ccc2nc([C@H](CC3CCN(S(=O)(=O)C(C)C)CC3)N3C(=O)CN(c4ccc(Oc5ccccc5)cc4)C3=O)n(C)c2c1
- IC50 (Huh-7): > 100000 nM
- IC50 (Bile acid receptor [12]): 126000 nM
- IC50 (Bile acid receptor [3]): 59.8 nM

SMILES: Cc1ccc2nc([C@H](Cc3ccc(Cl)cc3)N3C(=O)CN(c4ccc(Oc5ccccc5)cc4)C3=O)n(C)c2c1
- IC50 (Huh-7): > 100000 nM
- IC50 (Bile acid receptor [12]): > 400000 nM
- IC50 (Bile acid receptor [3]): > 20000 nM

SMILES: Cc1ccc2nc([C@H](Cc3ccccc3)N3C(=O)CN(c4ccc(Oc5ccccc5)cc4)C3=O)n(C)c2c1
- IC50 (Huh-7): > 100000 nM
- IC50 (Bile acid receptor [12]): > 400000 nM
- IC50 (Bile acid receptor [3]): 81 nM

SMILES: Cc1ccc2nc([C@H](CC3CCN(C(=O)C(C)C)CC3)NC(=O)Nc3ccc(Oc4ccccc4)cc3)n(C)c2c1
- IC50 (Huh-7): > 100000 nM
- IC50 (Bile acid receptor [12]): > 400000 nM
- IC50 (Bile acid receptor [3]): > 20000 nM

SMILES: Cc1ccc2nc([C@@H](CC3CCN(C(=O)C(C)C)CC3)N3C(=O)CN(c4ccc(Oc5ccccc5)cc4)C3=O)n(C)c2c1
- IC50 (Huh-7): > 100000 nM
- IC50 (Bile acid receptor [12]): 2700 nM
- IC50 (Bile acid receptor [3]): 41 nM

SMILES: Cc1ccc2nc([C@H](CC3CCN(C(=O)C(C)C)CC3)NC(=O)c3ccc(Oc4ccccc4)cc3)n(C)c2c1
- IC50 (Huh-7): > 100000 nM
- IC50 (Bile acid receptor [12]): > 400000 nM
- IC50 (Bile acid receptor [3]): > 20000 nM

SMILES: Cc1ccc2nc([C@H](CC3CCN(C(=O)NC(C)C)CC3)N3C(=O)CN(c4ccc(Oc5ccccc5)cc4)C3=O)n(C)c2c1
- IC50 (Huh-7): > 100000 nM
- IC50 (Bile acid receptor [12]): 1500 nM
- IC50 (Bile acid receptor [3]): 18.3 nM

SMILES: Cc1ccc2nc([C@H](CC3CCN(C(=O)C(C)C)CC3)N3CC(=O)N(c4ccc(Oc5ccccc5)cc4)CC3=O)n(C)c2c1
- IC50 (Huh-7): > 100000 nM
- IC50 (Bile acid receptor [12]): 15000 nM
- IC50 (Bile acid receptor [3]): 859 nM

SMILES: Cc1ccc2nc([C@H](Cc3ccc(C(N)=O)cc3)N3C(=O)CN(c4ccc(Oc5ccccc5)cc4)C3=O)n(C)c2c1
- IC50 (Huh-7): > 100000 nM
- IC50 (Bile acid receptor [12]): 27300 nM
- IC50 (Bile acid receptor [3]): 6240 nM

SMILES: Cc1ccc2nc([C@H](CC3CCN(C(=O)C(C)C)CC3)N3C(=O)CN(c4ccc(Oc5ccccc5)cc4)C3=O)n(CC(C)C)c2c1
- IC50 (Huh-7): > 100000 nM
- IC50 (Bile acid receptor [12]): 330 nM
- IC50 (Bile acid receptor [3]): 2.4 nM

SMILES: Cc1ccc2nc([C@H](CC3CCN(C(=O)C(C)C)CC3)N3CCN(c4ccc(Oc5ccccc5)cc4)C3=O)n(C)c2c1
- IC50 (Huh-7): > 100000 nM
- IC50 (Bile acid receptor [12]): 4800 nM
- IC50 (Bile acid receptor [3]): 799 nM

SMILES: COc1ccc(Oc2ccc(N3CC(=O)N([C@@H](CC4CCN(C(=O)C(C)C)CC4)c4nc5ccc(C)cc5n4C)C3=O)cc2)cc1
- Kp at 6 h [13]: 15
- concentration at 6 h [1]: 1540 ng/g
- AUC(0-t) at 6 h [2]: 1.58 µg·h/mL
- IC50 (Huh-7): > 100000 nM
- IC50 (Bile acid receptor [12]): 7 nM
- IC50 (Bile acid receptor [3]): < 0.001 nM
- Kp at 6 h [14]: 13
- concentration at 6 h [4]: 1370 ng/g
- Vd [5]: 3.86 L/kg
- dose excreted [7]: 0.23%
- Tmax [8]: 2 h
- AUC(0-t) at 6 h [10]: 0.292 µg·h/mL
- half-life [11]: 1.37 h

SMILES: Cc1ccc2nc([C@H](CC3CCN(C(=O)C(C)C)CC3)N3C(=O)CN(c4ccc(Oc5ccccc5)cc4)C3=O)n(-c3ccc(F)cc3)c2c1
- IC50 (Huh-7): > 100000 nM
- IC50 (Bile acid receptor [12]): 2900 nM
- IC50 (Bile acid receptor [3]): 978 nM

SMILES: Cc1ccc2nc([C@H](CC3CCN(C(=O)C(C)C)CC3)N3C(=O)CN(c4ccc(Oc5ccc(Cl)cc5)cc4)C3=O)n(C)c2c1
- IC50 (Huh-7): > 100000 nM
- IC50 (Bile acid receptor [12]): 27 nM
- IC50 (Bile acid receptor [3]): 9.3 nM

SMILES: Cc1ccc2c(c1)nc([C@H](CC1CCN(C(=O)C(C)C)CC1)N1C(=O)CN(c3ccc(Oc4ccccc4)cc3)C1=O)n2C
- IC50 (Huh-7): > 100000 nM
- IC50 (Bile acid receptor [12]): 51 nM
- IC50 (Bile acid receptor [3]): < 0.001 nM

SMILES: Cc1ccc2nc([C@H](Cc3ccc(C(=O)NC(C)C)cc3)N3C(=O)CN(c4ccc(Oc5ccccc5)cc4)C3=O)n(C)c2c1
- IC50 (Huh-7): > 100000 nM
- IC50 (Bile acid receptor [12]): 38700 nM
- IC50 (Bile acid receptor [3]): 2690 nM

SMILES: Cc1ccc2nc([C@H](CC3CCN(C(=O)C(C)C)CC3)N3C(=O)CN(c4ccc(OC5CCCCC5)cc4)C3=O)n(C)c2c1
- IC50 (Huh-7): 64300 nM
- IC50 (Bile acid receptor [12]): 180 nM
- IC50 (Bile acid receptor [3]): 53 nM
